Results as given in patent US20240358693A1, “METHODS OF TREATING PAIN” (Aisa Pharma, Inc., priority 2023, published 2024).

Tested on: participants with SSc-RP
Assay: Scleroderma Health Assessment Questionnaire (SHAQ): disability indices and visual analog scales
Type: in vivo, human
From the text: The standard, validated, patient reported outcome measures tool for SSc patients, the Scleroderma Health Assessment Questionnaire (SHAQ), will be used to assess the participant qualify of life. Details are attached in the Appendix. The participant quality of life will be scored, and a disability index calculated for each questionnaire completed by the patient at Screening and each in-clinic visit. The absolute change in participant quality of life from baseline to the end of each dosing period will be calculated similar to frequency data as before.
The SHAQ includes a Raynaud's VAS, which will be reported at screening and each in-clinic visit. The absolute change in Raynaud-VAS, assessed by the participants response to the SHAQ question ‘In the past 7 days, how much have your Raynaud's interfered with your daily activities?’ at baseline and the end of each dosing period will be calculated similar to frequency data as before.
The SHAQ is used to calculate a Disability Index to assess the participant qualify of life. The eight categories assessed by the Disability Index are 1) dressing and grooming, 2) arising, 3) eating, 4) walking, 5) hygiene, 6) reach, 7) grip, and 8) common daily activities. For each of these categories, patients report the amount of difficulty they have in performing two or three specific activities.
There are four possible responses for the Disability Index questions: • Without any difficulty=0 • With some difficulty=1 • With much difficulty=2 • Unable to do=3. • The highest score reported by the patient for any component question of the eight categories determines the score for that category. • If a component question is left blank or the response is too ambiguous to assign a score, then the score for that category is determined by the remaining completed question(s). • If all component questions are blank or if more than one answer is given, then follow up with the respondent is required. • If the respondent's mark is between the response columns, then move it to the closest one. If it's directly between the two, move it to the higher one.
Each of the disability items on the SHAQ has a companion aids/devices variable that is used to record what type(s) of assistance, if any, the participant uses for his/her usual activities. These variables (see below) are coded as follows: • 0=No assistance is needed. • 1=A special device is used by the patient in his/her usual activities. • 2=The patient usually needs help from another person. • 3=The patient usually needs BOTH a special device AND help from another person.
The scoring variables and scoring rules permit the computation of two disability indices, the Standard Disability Index and the Alternative Disability Index.
This question results in a new set of category scores that are computed by adjusting the score for each category, if necessary, based on the patient's use of an aid or device or assistance for that category. If either devices and/or help from another person are checked for a category, the score is set to “2”, unless the score is already “3” (i.e., scores of “0” or “1” are increased to “2”). For example, if the highest score for the dressing category is “1”, and the patient says they use a device for dressing, the computed category score would be “2”. The sum of the computed categories scores is then calculated and divided by the number of categories answered. This gives a score in the 0 to 3 range.
The aid and device variables are not used to calculate the alternative disability index; it is calculated by adding the scores for each of the categories and dividing by the number of categories answered. This gives a score in the 0 to 3 range.
The standard, validated, patient reported outcome measures tool for SSc patients, the SHAQ, was collected at the time points specified in the study schedules (FIG. 2 and FIGS. 4A and 4B) to assess the participant's quality of life. The SHAQ included a Raynaud's VAS that will also be reported separately.

[1] = Baseline, Cilnidipine 20 mg (N = 4), Patients with Diagnosis of SSc, PP Population Part A
[2] = Baseline, Pooled Cilnidipine 10 mg and Cilnidipine 10 mg + Tadalafil 5 mg (N = 9), PP Population Part A
[3] = Baseline, Pooled Cilnidipine 20 mg and Cilnidipine 20 mg + Tadalafil 5 mg (N = 8), PP Population Part A
[4] = Baseline, Pooled Cilnidipine (N = 8), PP Population Part A
[5] = Cilnidipine 10 mg (N = 3), patients with diagnosis of SSc, sensitivity analysis, Modified ITT, Part A
[6] = Cilnidipine 10 mg (N = 4), Modified ITT, Part A
[7] = Cilnidipine 10 mg, Day 12, PP Population Part A, SSc patients

For COCCOC(=O)C1=C(C)NC(C)=C(C(=O)OC/C=C/c2ccccc2)C1c1cccc([N+](=O)[O-])c1 (stereo not shown) [Cilnidipine, cilnidipine], the “SHAQ Standard Disability Index, Median” value (Baseline, Cilnidipine 10 mg (N = 4), Patients with Diagnosis of SSc, PP Population Part A) was 0.563, the “SHAQ Alternative Disability Index, Mean” value [1] was 0.219 and the “SHAQ Alternative Disability Index, Median” value [1] was 0.250. The “SHAQ Standard Disability Index, Mean” value [1] was 0.344, the “SHAQ Standard Disability Index, Median” value [1] was 0.375 and the “SHAQ Visual Analogue Scale - Breathing Problems, Mean” value [2] was 1.511. The “SHAQ Visual Analogue Scale - Breathing Problems, Median” value [2] was 0.800, the “SHAQ Visual Analogue Scale - Finger Ulcers, Mean” value [2] was 0.656 and the “SHAQ Visual Analogue Scale - Finger Ulcers, Median” value [2] was 0.200. The “SHAQ Visual Analogue Scale - Intestinal Problems, Mean” value [2] was 2.444, the “SHAQ Visual Analogue Scale - Intestinal Problems, Median” value [2] was 1.100 and the “SHAQ Visual Analogue Scale - Overall Disease Severity, Mean” value [2] was 3.044. The “SHAQ Visual Analogue Scale - Overall Disease Severity, Median” value [2] was 1.900, the “SHAQ Visual Analogue Scale - Pain, Mean” value [2] was 3.278 and the “SHAQ Visual Analogue Scale - Pain, Median” value [2] was 3.100. For the same compound, the “SHAQ Visual Analogue Scale - Raynaud's, Mean” value [2] was 2.733, the “SHAQ Visual Analogue Scale - Raynaud's, Median” value [2] was 1.400 and the “SHAQ Visual Analogue Scale - Breathing Problems, Mean” value [3] was 1.175. For the same compound, the “SHAQ Visual Analogue Scale - Breathing Problems, Median” value [3] was 1.000, the “SHAQ Visual Analogue Scale - Finger Ulcers, Mean” value [3] was 1.986 and the “SHAQ Visual Analogue Scale - Finger Ulcers, Median” value [3] was 0.100. The “SHAQ Visual Analogue Scale - Intestinal Problems, Mean” value [3] was 0.813, the “SHAQ Visual Analogue Scale - Intestinal Problems, Median” value [3] was 0.650 and the “SHAQ Visual Analogue Scale - Overall Disease Severity, Mean” value [3] was 3.363. The “SHAQ Visual Analogue Scale - Overall Disease Severity, Median” value [3] was 2.950, the “SHAQ Visual Analogue Scale - Pain, Mean” value [3] was 2.800 and the “SHAQ Visual Analogue Scale - Pain, Median” value [3] was 2.900. For the same compound, the “SHAQ Visual Analogue Scale - Raynaud's, Mean” value [3] was 2.700, the “SHAQ Visual Analogue Scale - Raynaud's, Median” value [3] was 1.700 and the “SHAQ Visual Analogue Scale - Breathing Problems, Mean” value [4] was 1.600. For the same compound, the “SHAQ Visual Analogue Scale - Breathing Problems, Median” value [4] was 0.700, the “SHAQ Visual Analogue Scale - Finger Ulcers, Mean” value [4] was 1.171 and the “SHAQ Visual Analogue Scale - Finger Ulcers, Median” value [4] was 0.300. For the same compound, the “SHAQ Visual Analogue Scale - Intestinal Problems, Mean” value [4] was 1.838, the “SHAQ Visual Analogue Scale - Intestinal Problems, Median” value [4] was 0.650 and the “SHAQ Visual Analogue Scale - Overall Disease Severity, Mean” value [4] was 2.925. The “SHAQ Visual Analogue Scale - Overall Disease Severity, Median” value [4] was 2.950, the “SHAQ Visual Analogue Scale - Pain, Mean” value [4] was 2.250 and the “SHAQ Visual Analogue Scale - Pain, Median” value [4] was 2.150. The “SHAQ Visual Analogue Scale - Raynaud's, Mean” value [4] was 2.338, the “SHAQ Visual Analogue Scale - Raynaud's, Median” value [4] was 1.800 and the “SHAQ Standard Disability Index: Baseline, Mean” value [5] was 0.875. For the same compound, the “SHAQ Standard Disability Index: Baseline, Median” value [5] was 1.125, the “SHAQ Standard Disability Index: Change from Baseline, Mean” value [5] was 0.000 and the “SHAQ Standard Disability Index: Change from Baseline, Median” value [5] was 0.000. The “SHAQ Standard Disability Index: Day 12, Mean” value [5] was 0.875, the “SHAQ Standard Disability Index: Day 12, Median” value [5] was 1.125 and the “SHAQ Standard Disability Index: Percent Change from Baseline, Mean” value [5] was 0.00%. For the same compound, the “SHAQ Standard Disability Index: Percent Change from Baseline, Median” value [5] was 0.00%, the “SHAQ Overall Severity: Baseline, Mean” value [6] was 2.725 and the “SHAQ Overall Severity: Baseline, Median” value [6] was 1.900. The “SHAQ Overall Severity: Change from Baseline, Mean” value [6] was −0.900, the “SHAQ Overall Severity: Change from Baseline, Median” value [6] was −0.950 and the “SHAQ Overall Severity: Day 12, Mean” value [6] was 1.825. For the same compound, the “SHAQ Overall Severity: Day 12, Median” value [6] was 1.050, the “SHAQ Overall Severity: Percent Change from Baseline, Mean” value [6] was −56.96% and the “SHAQ Overall Severity: Percent Change from Baseline, Median” value [6] was −44.12%. The “SHAQ Visual Analogue Scale - Breathing Problems, Change from Baseline, Mean” value [7] was −0.300, the “SHAQ Visual Analogue Scale - Breathing Problems, Change from Baseline, Median” value [7] was 0.000 and the “SHAQ Visual Analogue Scale - Breathing Problems, Percent Change from Baseline, Mean” value [7] was −16.00%. The “SHAQ Visual Analogue Scale - Breathing Problems, Percent Change from Baseline, Median” value [7] was −16.00%.
